In patent US9126999B2, “Tetrahydropyrazolopyrimidine compounds” (EISAI R&D MANAGEMENT CO., LTD., priority 2012, dated 2015):

Biological target: T1, Mouse TLR7 (Mus musculus, UniProt P58681)
T1 construct: endogenous in cells; host or cells: female BALB/c mice, in vivo
T1 sequence (P58681 27-1050): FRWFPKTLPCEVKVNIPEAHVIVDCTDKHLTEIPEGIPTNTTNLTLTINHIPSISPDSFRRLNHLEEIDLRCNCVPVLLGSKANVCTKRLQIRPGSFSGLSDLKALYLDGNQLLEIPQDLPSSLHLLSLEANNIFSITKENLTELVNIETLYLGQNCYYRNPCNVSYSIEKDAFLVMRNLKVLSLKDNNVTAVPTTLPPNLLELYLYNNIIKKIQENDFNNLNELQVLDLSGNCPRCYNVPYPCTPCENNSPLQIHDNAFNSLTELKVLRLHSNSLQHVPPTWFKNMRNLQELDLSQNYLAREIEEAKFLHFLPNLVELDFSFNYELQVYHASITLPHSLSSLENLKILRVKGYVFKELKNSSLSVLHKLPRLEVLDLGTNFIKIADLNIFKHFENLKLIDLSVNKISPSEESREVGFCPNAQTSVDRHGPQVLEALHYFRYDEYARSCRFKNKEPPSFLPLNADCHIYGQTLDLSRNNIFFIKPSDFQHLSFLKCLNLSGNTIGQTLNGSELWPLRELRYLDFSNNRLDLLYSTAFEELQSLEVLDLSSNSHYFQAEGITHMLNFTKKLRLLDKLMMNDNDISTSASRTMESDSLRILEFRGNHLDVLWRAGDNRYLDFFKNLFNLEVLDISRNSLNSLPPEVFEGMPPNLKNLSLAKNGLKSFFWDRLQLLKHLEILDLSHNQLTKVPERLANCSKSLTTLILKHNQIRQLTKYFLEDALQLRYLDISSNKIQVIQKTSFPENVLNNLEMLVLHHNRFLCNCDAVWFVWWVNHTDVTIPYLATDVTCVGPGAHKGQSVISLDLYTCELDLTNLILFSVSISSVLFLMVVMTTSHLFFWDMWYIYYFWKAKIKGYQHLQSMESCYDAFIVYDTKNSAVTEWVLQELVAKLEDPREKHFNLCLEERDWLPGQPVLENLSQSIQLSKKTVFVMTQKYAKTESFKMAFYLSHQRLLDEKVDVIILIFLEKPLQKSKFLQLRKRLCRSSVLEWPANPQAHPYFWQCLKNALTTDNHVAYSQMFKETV
Experiment: Short-term in vivo (STIV) assay: plasma IL-6 after s.c. R848
Method: Figure Legend: Female BALB/c mice were dosed by oral gavage with Vehicle alone (0.5% aqueous methyl-cellulose) or compound ER-892887 formulated in Vehicle at 100 mg/kg or 300 mg/kg. At 13 or 24 hours following oral dosing, mice were injected subcutaneously with 15 ug R848 to stimulate TLR7. Blood plasma was collected by cardiac puncture, and the IL-6 level at 1.5 hours after TLR7 stimulation was then assessed by standard ELISA procedure. Percent suppression indicated is relative to IL-6 induction following Vehicle control dosing. Statistical significance was determined by Mann-Whitney test.
To assess compound potency in vivo against mouse TLR7, a short-term in vivo (STIV) assay was utilized. Briefly, mice were orally dosed with compounds and at various time points afterwards were injected subcutaneously with agonist R848 to stimulate TLR7. The plasma IL-6 level following R848 stimulation was then measured by ELISA to assess compound potency and duration-of-action. […] Therefore, the activity of compounds in the STIV assay can be confidently attributed to their modulation of the TLR7 pathway. A single oral dose of ER-892887 at 300 mg/kg suppresses the R848/TLR7/IL-6 pathway in vivo by 80-90% for at least 24 hours (see FIG. 1).
Six to eight week old female BALB/c mice (Jackson Labs, Bar Harbor, Me.) were dosed by oral gavage in 200 ul volume with antagonist compounds formulated in 0.5% aqueous methyl-cellulose (Sigma, St. Louis, Mo.). At various time points afterwards, mice were injected subcutaneously (s.c.) in 100 ul volume with 15 ug R848 (Resiquimod; GLSynthesis, Worcester, Mass.) to stimulate TLR7. Blood plasma was collected by cardiac puncture, and levels of IL-6 at 1.5 hours after TLR7 stimulation were then assessed by standard ELISA procedure according to the manufacturer's recommended protocol (R&D Systems).

[1] = time point 6 hr, dose 33 mg/kg oral
[2] = time point 6 hr, dose 100 mg/kg oral
[3] = time point 13 hr, dose 33 mg/kg oral
[4] = time point 13 hr, dose 100 mg/kg oral

| Compound | % Suppression vs. Vehicle (time point 19 hr, dose 100 mg/kg oral) | % Suppression vs. Vehicle (time point 19 hr, dose 300 mg/kg oral) | suppression of the R848/TLR7/IL-6 pathway in vivo (single oral dose 300 mg/kg) | duration of suppression of the R848/TLR7/IL-6 pathway in vivo (single oral dose 300 mg/kg, 80-90% suppression) | % Suppression vs. Vehicle [1] | % Suppression vs. Vehicle [2] | % Suppression vs. Vehicle (time point 13 hr, dose 11 mg/kg oral) | % Suppression vs. Vehicle [3] | % Suppression vs. Vehicle [4] | % Suppression vs. Vehicle (time point 13 hr, dose 300 mg/kg oral) | % Suppression vs. Vehicle (time point 24 hr, dose 33 mg/kg oral) | % Suppression vs. Vehicle (time point 24 hr, dose 100 mg/kg oral) | % Suppression vs. Vehicle (time point 24 hr, dose 300 mg/kg oral) |
| --- | --- | --- | --- | --- | --- | --- | --- | --- | --- | --- | --- | --- | --- |
| COc1ccc([C@@H]2C[C@H](C(F)(F)F)n3nc(-c4ccncc4)cc3N2)cc1OC [ER-885454] | 56% | 100% | – | – | – | – | – | – | – | – | – | – | – |
| COc1ccc([C@@H]2C[C@H](C(F)(F)F)n3nc(-c4ccc(C(=O)N5CCNCC5)cc4)cc3N2)cc1OC [ER-892887, (4-((5S,7R)-5-(3,4-dimethoxyphenyl)-7-(trifluoromethyl)-4,5,6,7-tetrahydropyrazolo[1,5-a]pyrimidin-2-yl)phenyl)(piperazin-1-yl)methanone] | – | – | 80-90% | at least 24 hours | 83% | 100% | 27% | 12% | 49% | 90% | 0% | 12% | 86% |
| Cc1nn(C)cc1[C@@H]1C[C@H](C(F)(F)F)n2nc(-c3ccc(NC(N)=O)cc3)cc2N1 [ER-894595] | – | – | – | – | 0% | 57% | – | 0% | 0% | – | – | – | – |
